# Test results taken from patent publication US11787799B2 (priority 2015, dated 2023).
# Values joined by “and” are separate entries in the source; they are usually repeats but may differ in a detail not shown here. Identical values can stand only once.
# How the values were obtained:
# Enterovirus 71 = assay: microbe, parasite or virus in culture; format: cell-based; details: read-out: EC50 EV71
# Coxsackievirus B4 = assay: microbe, parasite or virus in culture; format: cell-based; details: read-out: EC50 CVB4
# Poliovirus 3 = assay: microbe, parasite or virus in culture; format: cell-based; details: read-out: EC50 PV3
# Coxsackievirus B2 = assay: microbe, parasite or virus in culture; format: cell-based; details: read-out: EC50 CVB2
# Coxsackievirus B5 = assay: microbe, parasite or virus in culture; format: cell-based; details: read-out: EC50 CVB5
# [1] = tested on: Enterovirus D68/US/Mo/14-18949; assay: Antiviral assay, Enterovirus D68 strain US/Mo/14-18949 in RD cells; format: cell-based
# Coxsackievirus A9 = assay: microbe, parasite or virus in culture; format: cell-based; details: read-out: EC50 COX A9
# Coxsackievirus B3-H3 = assay: microbe, parasite or virus in culture; format: cell-based; details: read-out: EC50 CVB3-H3
# Enterovirus D68/Fermon = assay: Antiviral assay, Enterovirus D68 strain Fermon in RD cells; format: cell-based
# Poliovirus 1 = assay: microbe, parasite or virus in culture; format: cell-based; details: read-out: EC50 PV1
# Coxsackievirus B1 = assay: microbe, parasite or virus in culture; format: cell-based; details: read-out: EC50 CVB1
# [2] = tested on: Enterovirus D68/US/KY/14-18953; assay: Antiviral assay, Enterovirus D68 strain US/KY/14-18953 in RD cells; format: cell-based
# Echovirus 6 = assay: microbe, parasite or virus in culture; format: cell-based; details: read-out: EC50 ECHO06
# Echovirus 9 = assay: microbe, parasite or virus in culture; format: cell-based; details: read-out: EC50 ECHO09
# Echovirus 7 = assay: microbe, parasite or virus in culture; format: cell-based; details: read-out: EC50 ECHO07
SMILES,CC50 (LLC cells) [µM],EC50 (Enterovirus 71) [µM],EC50 (Coxsackievirus B4) [µM],EC50 (Poliovirus 3),EC50 (Coxsackievirus B2) [µM],CC50 (HeLa-RW cells) [µM],EC50 (Coxsackievirus B5) [µM],EC50 [1] [µM],EC50 (Coxsackievirus A9) [µM],EC50 (Coxsackievirus B3-H3) [µM],EC50 (Enterovirus D68/Fermon) [µM],EC50 (Poliovirus 1) [µM],EC50 (Coxsackievirus B1) [µM],EC50 [2] [µM],EC50 (Echovirus 6) [µM],CC50 (RD cells) [µM],EC50 (Echovirus 9) [µM],EC50 (Echovirus 7) [µM]
CC(C)n1ncc2c(C(=O)N3CCc4cc(F)ccc43)cc(-c3cccs3)nc21 [JX-048],> 200,1.3 ± 0.2,1.2,> 10 µM,1.5,20,1.2,2.1 ± 0.6,1.2,1.5,2.8 ± 0.45,> 10,1.5,4.1 ± 1.2,1.1,> 200,–,–
CC(C)n1ncc2c(C(=O)Nc3cccc(S(N)(=O)=O)c3)cc(C3CC3)nc21 [JX-055],–,–,–,–,–,–,–,0.4 ± 0.2,–,–,0.7 ± 0.2,–,–,0.73 ± 0.12,–,> 200,–,–
CC(C)n1ncc2c(C(=O)Nc3cccnc3)cc(-c3ccsc3)nc21 [JX-060],37,2.4,0.6,> 10 µM,0.6,18,0.6,–,–,0.6,–,> 10,0.6,–,–,–,–,–
CC(C)n1ncc2c(C(=O)Nc3cccc(C(N)=O)c3)cc(-c3cccs3)nc21 [JX-064],20,0.5,0.6,6.25 µM,0.6,18,0.6,0.05,0.6,0.7 ± 0.1,–,6.25,0.6,0.17,–,25,0.2,–
CC(C)n1ncc2c(C(=N)Nc3cccnc3)cc(-c3cccs3)nc21 [JX-065],–,–,–,–,–,–,–,4.7 ± 1.6,–,–,6.3,–,–,6.3,–,75,–,–
CC(C)n1ncc2c(C(=O)Nc3cncnc3)cc(-c3cccs3)nc21 [JX-066],20,0.4,0.5,> 10 µM,0.5,18,0.5,0.05 ± 0.01,0.4,0.7 ± 0.2,0.06 ± 0.02,> 10,0.5,0.15,–,25,0.2,–
CC(C)n1ncc2c(C(=N)Nc3ccc(F)cc3)cc(-c3cccs3)nc21 [JX-067],–,–,–,–,–,18,–,1.27 ± 0.12,–,–,1.6,–,–,2.27 ± 0.23,–,100,–,–
CC(C)n1ncc2c(C(=O)Nc3cc(S(N)(=O)=O)ccc3F)cc(-c3cccs3)nc21 [JX-068],25,0.5,0.5,6.25 µM,0.5,18,0.5,0.05 ± 0.01,0.6,0.6,0.05,6.25,0.6,0.11 ± 0.01,–,25,0.2,–
CC(C)n1ncc2c(C(=O)Nc3ccccn3)cc(-c3ccccc3)nc21 [JX-070],12.5,0.7,–,> 10 µM,1.6,18.8,–,–,–,1.6,0.35,> 10,1.2,0.7,–,12.5,–,2.3
CC(C)n1ncc2c(C(=O)Nc3ccccn3)cc(C3CC3)nc21 [JX-071],25,4.7,–,> 10 µM,6.25,25,–,–,–,4.7,1.2,> 10,4.7,2.3,–,37,–,9.4
CC(C)n1ncc2c(C(=O)Nc3cc(C(N)=O)ccc3F)cc(-c3cccs3)nc21 [JX-073],25,0.5,–,5 µM and 6.3 µM,1.2,18.8,–,–,–,0.8,< 0.4,5,0.6,< 0.4,–,25,–,1.2
CC(C)n1ncc2c(C(=O)Nc3ccc(F)cn3)cc(-c3cccs3)nc21 [JX-075],> 200,1.2,–,> 10 µM,–,37.5,–,< 0.4,–,0.7 ± 0.1,< 0.4,> 10,–,< 0.4,–,25,–,–
CC(C)n1ncc2c(C(=O)N3CCc4cccnc43)cc(-c3cccs3)nc21 [JX-076],50,12.5,–,> 10 µM,–,37.5,–,4,–,9.4,4,> 10,–,4.7,–,45,–,–
